SMILES strings stand for the structures.

This experiment has as its target Mitotic checkpoint serine/threonine-protein kinase BUB1 (Homo sapiens, UniProt O43683). As to the kind of experiment: Inhibition of Bub1 kinase (unknown origin) by TR-FRET kinase assay. Background: In TR-FRET formats the signal depends on donor and acceptor labels being close together.

Mitotic checkpoint serine/threonine-protein kinase BUB1, sequence (O43683 whole entry): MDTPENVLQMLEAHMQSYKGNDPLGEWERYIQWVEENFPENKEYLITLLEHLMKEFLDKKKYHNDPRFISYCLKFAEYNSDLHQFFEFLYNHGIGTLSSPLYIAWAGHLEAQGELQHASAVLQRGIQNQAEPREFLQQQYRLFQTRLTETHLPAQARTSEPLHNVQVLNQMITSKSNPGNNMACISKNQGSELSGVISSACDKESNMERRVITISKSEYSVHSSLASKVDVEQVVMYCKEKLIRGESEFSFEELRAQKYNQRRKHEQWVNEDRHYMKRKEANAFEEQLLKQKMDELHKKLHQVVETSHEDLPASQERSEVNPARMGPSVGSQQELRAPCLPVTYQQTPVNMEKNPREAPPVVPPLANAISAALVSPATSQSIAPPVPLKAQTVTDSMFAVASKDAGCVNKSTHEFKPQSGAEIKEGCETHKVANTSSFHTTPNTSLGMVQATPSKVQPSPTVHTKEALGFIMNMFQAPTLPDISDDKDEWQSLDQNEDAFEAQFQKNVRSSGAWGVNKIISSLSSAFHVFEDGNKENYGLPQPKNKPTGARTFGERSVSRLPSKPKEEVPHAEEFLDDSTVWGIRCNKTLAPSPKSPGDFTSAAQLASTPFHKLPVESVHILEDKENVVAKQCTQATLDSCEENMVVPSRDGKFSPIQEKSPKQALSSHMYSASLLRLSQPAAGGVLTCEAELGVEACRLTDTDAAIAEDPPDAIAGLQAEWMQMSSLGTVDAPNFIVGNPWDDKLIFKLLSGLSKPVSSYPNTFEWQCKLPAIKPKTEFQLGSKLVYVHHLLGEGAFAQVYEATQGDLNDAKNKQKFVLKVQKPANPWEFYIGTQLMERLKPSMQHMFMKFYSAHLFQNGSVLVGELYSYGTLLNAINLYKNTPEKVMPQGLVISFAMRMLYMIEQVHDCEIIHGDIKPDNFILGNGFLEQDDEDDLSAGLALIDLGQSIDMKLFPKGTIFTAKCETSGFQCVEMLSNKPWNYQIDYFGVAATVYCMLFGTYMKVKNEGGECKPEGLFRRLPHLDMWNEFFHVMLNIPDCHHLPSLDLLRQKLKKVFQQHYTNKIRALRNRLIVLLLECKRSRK

By IC50 is commonly meant the concentration at which inhibition is half-maximal. In turn, `CCOC(=O)c1cnccc1Nc1nc(-c2nn(Cc3ccccc3F)c3c2CCC3)ncc1Oc1ccccc1C(=O)OCC` registered a half-maximal inhibitory concentration (IC50) of 500 nM.

For the origin of these results see ChEMBL document CHEMBL3259793, “Novel cycloalkenepyrazoles as inhibitors of bub1 kinase” (ACS Med Chem Lett, 2014).
